Legend:
ABUTH [1] = test: Pre-emergence herbicidal action against ABUTH; type: in vivo, Abutilon theophrasti
Outline: (§1)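 Pre-emergence soil-surface spray of formulated compound (WP or EC; 600 to 800 l/ha; 0.2% wetting agent) over seeds sown in sandy loam. After 3 weeks under greenhouse conditions, damage is estimated visually in percent against untreated plants.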

SETVI [2] = test: Pre-emergence herbicidal action against SETVI; type: in vivo, Setaria viridis
Outline: as §1

ALOMY [3] = test: Pre-emergence herbicidal action against ALOMY; type: in vivo, Alopecurus myosuroides; conditions: 80 g/ha, pre-emergence, scored visually after 3 weeks vs untreated controls (100% = plants have died, 0% = like control plants)
Outline: as §1

VIOTR [4] = test: Post-emergence herbicidal action against VIOTR; type: in vivo, Viola tricolor
Outline: (§2)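 Greenhouse plants in sandy loam were sprayed at the one-leaf stage, 2 to 3 weeks after sowing, with WP or EC formulations as aqueous suspension or emulsion (600 to 800 l/ha water, 0.2% wetting agent). Visual damage was scored about 3 weeks later versus untreated controls, 0% = like control, 100% = dead.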

AMARE [5] = test: Pre-emergence herbicidal action against AMARE; type: in vivo, Amaranthus retroflexus
Outline: as §1

SETVI [6] = test: Post-emergence herbicidal action against SETVI; type: in vivo, Setaria viridis
Outline: as §2

ECHCG [7] = test: Pre-emergence herbicidal action against ECHCG; type: in vivo, Echinochloa crus-galli
Outline: as §1

ABUTH [8] = test: Post-emergence herbicidal action against ABUTH; type: in vivo, Abutilon theophrasti; conditions: visual assessment about 3 weeks after treatment vs untreated controls
Outline: as §2

MATIN [9] = test: Pre-emergence herbicidal action against MATIN; type: in vivo, Matricaria inodora
Outline: as §1

DIGSA [10] = test: Pre-emergence herbicidal action against DIGSA; type: in vivo, Digitaria sanguinalis; conditions: Digitaria sanguinalis, 504 h, dosage 80 g/ha
Outline: as §1

VIOTR [11] = test: Pre-emergence herbicidal action against VIOTR; type: in vivo, Viola tricolor
Outline: as §1

DIGSA [12] = test: Post-emergence herbicidal action against DIGSA; type: in vivo, Digitaria sanguinalis
Outline: as §2

AVEFA [13] = test: Post-emergence herbicidal action against AVEFA; type: in vivo, Avena fatua; conditions: 20 g/ha, visual assessment about 3 weeks after treatment, 100% = plants have died, 0% = like control plants
Outline: as §2

PHBPU [14] = test: Post-emergence herbicidal action against PHBPU; type: in vivo, Pharbitis purpurea
Outline: as §2

VERPE [15] = test: Pre-emergence herbicidal action against VERPE; type: in vivo, Veronica persica; conditions: dosage 80 g/ha
Outline: as §1

POLCO = test: Pre-emergence herbicidal action against POLCO; type: in vivo, Polygonum convolvulus
Outline: as §1

AVEFA [16] = test: Pre-emergence herbicidal action against AVEFA; type: in vivo, Avena fatua; conditions: 80 g/ha, pre-emergence
Outline: as §1

VERPE [17] = test: Post-emergence herbicidal action against VERPE; type: in vivo, Veronica persica; conditions: Veronica persica, 504 h, 20 g/ha
Outline: as §2

ECHCG [18] = test: Post-emergence herbicidal action against ECHCG; type: in vivo, Echinochloa crus-galli
Outline: as §2

AMARE [19] = test: Post-emergence herbicidal action against AMARE; type: in vivo, Amaranthus retroflexus; conditions: 20 g/ha, visual assessment about 3 weeks after treatment, 100% = plants have died, 0% = like control plants
Outline: as §2

PHBPU [20] = test: Pre-emergence herbicidal action against PHBPU; type: in vivo, Pharbitis purpurea; conditions: dosage 80 g/ha
Outline: as §1

MATIN [21] = test: Post-emergence herbicidal action against MATIN; type: in vivo, Matricaria inodora
Outline: as §2

ALOMY [22] = test: Post-emergence herbicidal action against ALOMY; type: in vivo, Alopecurus myosuroides; conditions: dosage 20 g/ha, visual assessment about 3 weeks after treatment vs untreated controls
Outline: as §2

[23] = Setaria viridis, 504 h, dosage 20 g/ha
[24] = Tripleurospermum inodorum, 504 h, dosage 20 g/ha
[25] = 80 g/ha, scored visually after 3 weeks vs untreated controls (100% = plants have died, 0% = like control plants)

COc1c(C(=O)Nc2nnnn2C)ccc(C(F)(F)F)c1C(=O)NC1CC1 [Example 1-58] was tested, and the pest or weed control at 80 g/ha (ABUTH [1]; Abutilon theophrasti, 504 h, 80 g/ha, scored visually after 3 weeks vs untreated controls (100% = plants have died, 0% = like control plants)) was 80%, the pest or weed control at 20 g/ha (SETVI [2]; [23]) was 100% and the pest or weed control at 80 g/ha (SETVI [2]; Setaria viridis, 504 h, dosage 80 g/ha) was 100%. The pest or weed control at 80 g/ha (ALOMY [3]; Alopecurus myosuroides, 504 h) was 90%, the pest or weed control at 5 g/ha (VIOTR [4]; Viola tricolor, 504 h, 5 g/ha) was 90% and the pest or weed control at 20 g/ha (VIOTR [4]; Viola tricolor, 504 h, 20 g/ha) was 100%. For the same compound, the pest or weed control at 20 g/ha (AMARE [5]; Amaranthus retroflexus, 504 h, 20 g/ha, scored visually after 3 weeks vs untreated controls, 100% = plants have died, 0% = like control plants) was 100%, the pest or weed control at 80 g/ha (AMARE [5]; Amaranthus retroflexus, 504 h, 80 g/ha, scored visually after 3 weeks vs untreated controls, 100% = plants have died, 0% = like control plants) was 100% and the pest or weed control at 5 g/ha (SETVI [6]; Setaria viridis, 504 h, dosage 5 g/ha) was 100%. The pest or weed control at 20 g/ha (SETVI [6]; [23]) was 100%, the pest or weed control at 20 g/ha (ECHCG [7]; Echinochloa crus-galli, 504 h, 20 g/ha) was 100% and the pest or weed control at 80 g/ha (ECHCG [7]; Echinochloa crus-galli, 504 h, 80 g/ha) was 100%. For the same compound, the pest or weed control at 5 g/ha (ABUTH [8]; Abutilon theophrasti, 504 h, dosage 5 g/ha) was 90%, the pest or weed control at 20 g/ha (ABUTH [8]; Abutilon theophrasti, 504 h, dosage 20 g/ha) was 90% and the pest or weed control at 20 g/ha (MATIN [9]; [24]) was 90%. The pest or weed control at 80 g/ha (MATIN [9]; Tripleurospermum inodorum, 504 h, dosage 80 g/ha) was 100%, the pest or weed control at 80 g/ha (DIGSA [10]) was 80% and the pest or weed control at 20 g/ha (VIOTR [11]; Viola tricolor, 504 h, dosage 20 g/ha) was 100%. For the same compound, the pest or weed control at 80 g/ha (VIOTR [11]; Viola tricolor, 504 h, dosage 80 g/ha) was 100%, the pest or weed control at 5 g/ha (DIGSA [12]; Digitaria sanguinalis, 504 h, 5 g/ha) was 100% and the pest or weed control at 20 g/ha (DIGSA [12]; Digitaria sanguinalis, 504 h, 20 g/ha) was 100%. For the same compound, the pest or weed control at 20 g/ha (AVEFA [13]; Avena fatua, 504 h) was 90%, the pest or weed control at 20 g/ha (PHBPU [14]; Ipomoea purpurea, 504 h, dosage 20 g/ha) was 90% and the pest or weed control at 80 g/ha (VERPE [15]; Veronica persica, 504 h) was 100%. For the same compound, the pest or weed control at 20 g/ha (POLCO; Fallopia convolvulus, 504 h, dosage 20 g/ha) was 80%, the pest or weed control at 80 g/ha (POLCO; Fallopia convolvulus, 504 h, dosage 80 g/ha) was 90% and the pest or weed control at 80 g/ha (AVEFA [16]; Avena fatua, 504 h) was 80%. It also gave a pest or weed control at 20 g/ha (VERPE [17]) of 80%, a pest or weed control at 5 g/ha (ECHCG [18]; Echinochloa crus-galli, 504 h, dosage 5 g/ha) of 90% and a pest or weed control at 20 g/ha (ECHCG [18]; Echinochloa crus-galli, 504 h, dosage 20 g/ha) of 90%. It also gave a pest or weed control at 20 g/ha (AMARE [19]; Amaranthus retroflexus, 504 h) of 100%, a pest or weed control at 80 g/ha (PHBPU [20]; Ipomoea purpurea, 504 h) of 90% and a pest or weed control at 5 g/ha (MATIN [21]; Tripleurospermum inodorum, 504 h, dosage 5 g/ha) of 80%. For the same compound, the pest or weed control at 20 g/ha (MATIN [21]; [24]) was 90%.

CCNC(=O)c1c(C(F)(F)F)ccc(C(=O)Nc2nnnn2CC)c1CC [Example 2-272] was tested, and the “Pre-emergence action against ABUTH (herbicidal activity)” value (ABUTH [1]; [25]) was 100%, the “Pre-emergence action against ABUTH (herbicidal activity in percent)” value (ABUTH [1]; dosage 20 g/ha, scored visually after 3 weeks vs untreated controls, 100% = plants have died, 0% = like control plants) was 100% and the “Pre-emergence action against SETVI in %” value (SETVI [2]; dosage 80 g/ha) was 100%. For the same compound, the “Pre-emergence action against ALOMY (herbicidal activity)” value (ALOMY [3]) was 90%, the “Post-emergence action against VIOTR in %” value (VIOTR [4]; 20 g/ha) was 80% and the “Pre-emergence action against AMARE in %” value (AMARE [5]; 20 g/ha, scored visually after 3 weeks vs untreated controls, 100% = plants have died, 0% = like control plants) was 100%. For the same compound, the “Pre-emergence action against AMARE in %” value (AMARE [5]; [25]) was 100%, the “Post-emergence action against SETVI in %” value (SETVI [6]; dosage 5 g/ha) was 90% and the “Post-emergence action against SETVI in %” value (SETVI [6]; dosage 20 g/ha) was 100%. For the same compound, the “Pre-emergence action against ECHCG in %” value (ECHCG [7]; 80 g/ha) was 100%, the “Post-emergence action against ABUTH in %” value (ABUTH [8]; dosage 5 g/ha) was 90% and the “Post-emergence action against ABUTH in %” value (ABUTH [8]; dosage 20 g/ha) was 90%. The “Pre-emergence action against MATIN in %” value (MATIN [9]; dosage 20 g/ha) was 100%, the “Pre-emergence action against MATIN in %” value (MATIN [9]; dosage 80 g/ha) was 100% and the “Post-emergence action against ALOMY in %” value (ALOMY [22]) was 90%. For the same compound, the “Pre-emergence action against VIOTR in %” value (VIOTR [11]; dosage 20 g/ha) was 90%, the “Pre-emergence action against VIOTR in %” value (VIOTR [11]; dosage 80 g/ha) was 100% and the “Post-emergence action against DIGSA in %” value (DIGSA [12]; 5 g/ha) was 90%. For the same compound, the “Post-emergence action against DIGSA” value (DIGSA [12]; 20 g/ha) was 90%, the “Post-emergence action at 20 g/ha against AVEFA in %” value (AVEFA [13]) was 80% and the “Post-emergence action against PHBPU in %” value (PHBPU [14]; dosage 5 g/ha) was 90%. The “Post-emergence action against PHBPU in %” value (PHBPU [14]; dosage 20 g/ha) was 100%, the “Pre-emergence action against VERPE in %” value (VERPE [15]) was 90% and the “Pre-emergence action against POLCO in %” value (POLCO; dosage 80 g/ha) was 80%. For the same compound, the “Pre-emergence action against AVEFA in %” value (AVEFA [16]) was 80%, the “Post-emergence action against ECHCG in %” value (ECHCG [18]; dosage 5 g/ha) was 80% and the “Post-emergence action against ECHCG in %” value (ECHCG [18]; dosage 20 g/ha) was 90%. The “Post-emergence action at 20 g/ha against AMARE in %” value (AMARE [19]) was 100%, the “Pre-emergence action against PHBPU in %” value (PHBPU [20]) was 80% and the “Post-emergence action against MATIN in %” value (MATIN [21]; dosage 5 g/ha) was 80%. The “Post-emergence action against MATIN in %” value (MATIN [21]; dosage 20 g/ha) was 80%.
